Measurements reported in paper PMC6471386, “Cloning, Expression, and Characterization of a Psychrophilic Glucose 6-Phosphate Dehydrogenase from Sphingomonas sp. PAMC 26621” (International Journal of Molecular Sciences, 2019).

Molecular target: T1, SpG6PD1 (Sphingomonas sp. PAMC 26621, UniProt Z9Q3C2ML64)
T1 construct: cloning primer appears to add Gly after Met1 (ATGGGGCCAATC); 56 kDa on SDS-PAGE; tag removal not mentioned
T1 sequence (Z9Q3C2ML64 1-488): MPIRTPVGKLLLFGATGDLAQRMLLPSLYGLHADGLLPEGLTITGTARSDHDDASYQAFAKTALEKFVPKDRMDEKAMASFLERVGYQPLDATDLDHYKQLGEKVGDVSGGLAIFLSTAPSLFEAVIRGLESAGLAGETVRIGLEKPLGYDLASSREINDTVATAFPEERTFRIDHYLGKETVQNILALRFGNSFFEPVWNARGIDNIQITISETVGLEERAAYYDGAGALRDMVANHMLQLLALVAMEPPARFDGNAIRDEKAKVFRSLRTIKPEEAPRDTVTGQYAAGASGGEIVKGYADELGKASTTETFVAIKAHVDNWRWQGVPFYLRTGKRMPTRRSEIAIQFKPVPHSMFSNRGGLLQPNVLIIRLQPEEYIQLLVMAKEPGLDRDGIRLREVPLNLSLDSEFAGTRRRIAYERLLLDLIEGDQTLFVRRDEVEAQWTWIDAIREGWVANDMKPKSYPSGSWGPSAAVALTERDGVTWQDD
Assay: NAD(P)H formation at […] nm, Lineweaver-Burk
Assay type: biochemical
Conditions: NADP+ as co-substrate (assay mixture 100 µM); G6P varied 500-2000 µM; 50 mM Tris-HCl pH 8.0, 25 mM NaCl, 0.1 mM EDTA, 5% glycerol; 30 °C

Km: 145 ± 2 µM
Compound: O=P(O)(O)OC[C@H]1OC(O)[C@H](O)[C@@H](O)[C@@H]1O (stereo partly shown) [glucose 6-phosphate]
